Test results from patent US11299485B2, “Thiophene derivative and use thereof” (FUJIMOTO CO., LTD., priority 2018, dated 2022).
Marks after values point to notes of the source that are not given here.

How the values were obtained:
Type in all cases: cell-based
MM.1S cells = assay: Human myeloma cell line MM.1S proliferation suppression test; settings: MM1.S, 72 h, compound 10 μM, 3 days, WST-1 or WST-8, read-out: cell survival rate (% of control) MM.1S
Protocol: Example 51: Human Myeloma Cell Line MM.1S Proliferation Suppression Test
MM.1S cells (ATCC, CRL-2974) were suspended in 10% fetal calf serum (Thermo Fisher Scientific)-containing RPMI1640 medium (ATCC, hereinafter abbreviated as medium B), and diluted as appropriate with 0.4% trypan blue solution (Sigma-Aldrich Co. LLC.). The number of viable cells was counted with a hemocytometer (ERMA INC.). It was diluted with medium B such that the value obtained was 2×10^5 cells/mL. On the other hand, 50 μL of a solution obtained by diluting 4 mM DMSO solution of the test compound 200-fold with medium B was added to each well of a Falcon 96-well flat bottom plate (Corning Incorporated), and the above-mentioned cell suspension was dispensed at 50 μL/well (final concentration of test compound 10 μM). 50 μL of a solution obtained by diluting DMSO 200-fold with medium B was added to the control well. After culturing at 37° C. in a 5% CO2 stream for 3 days, the cell proliferation activity was measured using WST-1 (DOJINDO LABORATORIES) or WST-8 Kit (KISHIDA CHEMICAL Co., Ltd.) and according to each instruction manual attached thereto.

Daudi cells = assay: Human Burkitt lymphoma cell line Daudi proliferation suppression test; settings: 72 h, compound 10 μM, 3 days, WST-8, read-out: cell survival rate (% of control) Daudi
Source text: Example 54: Human Burkitt Lymphoma Cell Line Daudi Proliferation Suppression Test
Daudi cells (National Institutes of Biomedical Innovation, Health and Nutrition (NIBIOHN), JCRB9071) were suspended in medium B, and diluted as appropriate with 0.4% trypan blue solution (Sigma-Aldrich Co. LLC.). The number of viable cells was counted with a hemocytometer (ERMA INC.). A cell suspension obtained by diluting with medium B such that the value obtained was 1.3×10^5 cells/mL was dispensed into a Falcon 96 well flat bottom plate (Corning Incorporated) at 75 μL/well, and culture was started at 37° C. under 5% CO2 stream. The next day, a solution obtained by diluting 4 mM DMSO solution of the test compound 100-fold with medium B was added by 25 μL to each well (final concentration of test compound 10 μM). 25 μL of a solution obtained by diluting DMSO 100-fold with medium B was added to the control well. After culturing at 37° C. in a 5% CO2 stream for 3 days, the cell proliferation activity was measured according to the instruction manual attached to WST-8 Kit (KISHIDA CHEMICAL Co., Ltd.).

Kasumi-7 cells = assay: Human acute lymphoblastic leukemia cell line Kasumi-7 proliferation suppression test; settings: 72 h, compound 10 μM, 3 days, WST-8, read-out: cell survival rate (% of control) Kasumi-7
Source text: Example 55: Human Acute Lymphoblastic Leukemia Cell Line Kasumi-7 Proliferation Suppression Test
Kasumi-7 cells (NIBIOHN, JCRB1401) were suspended in 20% fetal calf serum (Thermo Fisher Scientific, Inc.)-containing RPMI1640 medium (ATCC, hereinafter abbreviated as medium C), and diluted as appropriate with 0.4% trypan blue solution (Sigma-Aldrich Co. LLC.). The number of viable cells was counted with a hemocytometer (Funakoshi Co., Ltd.). A cell suspension obtained by diluting with medium C such that the value obtained was 1.3×10^5 cells/mL was dispensed into a Falcon 96 well flat bottom plate (Corning Incorporated) at 75 μL/well, and culture was started at 37° C. under 5% CO2 stream. The next day, a solution obtained by diluting 4 mM DMSO solution of the test compound 100-fold with medium C was added by 25 μL to each well (final concentration of test compound 10 μM). 25 μL of a solution obtained by diluting DMSO 100-fold with medium C was added to the control well. After culturing at 37° C. in a 5% CO2 stream for 3 days, the cell proliferation activity was measured according to the instruction manual attached to WST-8 Kit (KISHIDA CHEMICAL Co., Ltd.).

[1] = test system: human peripheral blood mononuclear cells (PBMC); assay: Cytotoxicity test using human peripheral blood mononuclear cells (PBMC); settings: LPS, 24 hr
Protocol: Example 56: Cytotoxicity Test Using Human Peripheral Blood Mononuclear Cells (PBMC)
Peripheral blood of a healthy adult was collected in a Venoject II vacuum blood collection tube (Terumo, containing EDTA/2Na), and then diluted two-fold with an equal volume of OTSUKA NORMAL SALINE (Otsuka Pharmaceutical Co., Ltd.). The diluted blood was mixed with Lymphoprep (AXIS-SHIELD) in half the volume of the diluted blood, dispensed into a 15 mL conical tube, and centrifuged at room temperature for 20 min (2,100 rpm). The mononuclear cells accumulated at the interface between Lymphoprep and plasma was transferred to a 50 mL conical tube, diluted with OTSUKA NORMAL SALINE, and the mononuclear cells suspension was centrifuged at room temperature for 10 min (1,150 rpm) and then the supernatant was removed. The mononuclear cells fraction obtained as a precipitate was suspended in an appropriate amount of medium A, and diluted as appropriate with 0.4% trypan blue solution (Sigma-Aldrich Co. LLC.). The number of viable cells was counted with a hemocytometer (ERMA INC.). It was diluted with medium A such that the value obtained was 5×10^5 cells/mL. On the other hand, 37.5 μL of medium A, 2.5 μL of 0.4 mg/mL test compound solution (DMSO solution 10-fold diluted with medium A), and 10 μL of 10 μg/mL lipopolysaccharide (Sigma-Aldrich Co. LLC.) solution (diluted with medium A) were each added in advance to the same well of a Falcon 96-well flat bottom plate (Corning Incorporated), and the above-mentioned cell suspension was dispensed at 50 μL/well (final concentration of test compound 10 μg/mL). 2.5 μL of DMSO diluted 10-fold with medium A was added to the control well instead of the compound solution. After culturing at 37° C. in a 5% CO2 stream for 24 hr, the cell survival rate was measured using WST-1 (DOJINDO LABORATORIES) or WST-8 kit (KISHIDA CHEMICAL Co., Ltd.) and according to each instruction manual attached thereto.

[2] = compound 10 μg/mL, WST-1 or WST-8

SMILES | viability at 10 µM (MM.1S cells) [%] | viability at 10 µM (Daudi cells) [%] | viability at 10 µM (Kasumi-7 cells) [%] | cell survival rate (% of control) PBMC ([1]; 3 μg/mL due to precipitation of compound in medium) | cell survival rate (% of control) PBMC [1, 2]
COc1ccc(COc2cscc2-c2cn(C3CCC(=O)NC3=O)nn2)cc1 (centres unmarked) [compound 31, 3-{4-[4-(4-methoxybenzyloxy)thiophen-3-yl]-1H-1,2,3-triazol-1-yl}piperidine-2,6-dione] | 27 | 39 | 43 | 106** % of control | –
O=C1CCC(n2cc(-c3ccc(Cl)s3)nn2)C(=O)N1 (centres unmarked) [compound 11, 3-[4-(5-chlorothiophen-2-yl)-1H-1,2,3-triazol-1-yl]piperidine-2,6-dione] | 63 | 94 | 78 | – | 115 % of control
O=C1CCC(n2cc(-c3cscc3Br)nn2)C(=O)N1 (centres unmarked) [compound 1, 3-[4-(4-bromothiophen-3-yl)-1H-1,2,3-triazol-1-yl]piperidine-2,6-dione] | 33 | 61 | 65 | – | 106 % of control
O=C1CCC(n2cc(-c3cscc3OCC3CC3)nn2)C(=O)N1 (centres unmarked) [compound 28, 3-{4-[4-(cyclopropylmethoxy)thiophen-3-yl]-1H-1,2,3-triazol-1-yl}piperidine-2,6-dione] | 68 | 78 | 75 | – | 89 % of control
CN(C)Cc1ccc(COc2cscc2-c2cn(C3CCC(=O)NC3=O)nn2)cc1.Cl (centres unmarked) [compound 46, 3-[4-(4-{4-[(dimethylamino)methyl]benzyloxy}thiophen-3-yl)-1H-1,2,3-triazol-1-yl]piperidine-2,6-dione hydrochloride] | 35 | 29 | 35 | – | 110 % of control
O=C1CCC(n2cc(-c3csc(CO)c3)nn2)C(=O)N1 (centres unmarked) [compound 9, 3-{4-[5-(hydroxymethyl)thiophen-3-yl]-1H-1,2,3-triazol-1-yl}piperidine-2,6-dione] | 77 | 83 | 90 | – | 129 % of control
Cc1cscc1-c1cn(C2CCC(=O)NC2=O)nn1 (centres unmarked) [compound 7, 3-[4-(4-methylthiophen-3-yl)-1H-1,2,3-triazol-1-yl]piperidine-2,6-dione] | 57 | 75 | 69 | – | 101 % of control
O=C1CCC(n2cc(-c3ccsc3)nn2)C(=O)N1 (centres unmarked) [compound 2, 3-[4-(thiophen-3-yl)-1H-1,2,3-triazol-1-yl]piperidine-2,6-dione] | 50 | 71 | 68 | – | 100 % of control
O=C1CCC(n2cc(-c3cscc3OCc3ccncc3)nn2)C(=O)N1 (centres unmarked) [compound 33, 3-{4-[4-(pyridin-4-ylmethoxy)thiophen-3-yl]-1H-1,2,3-triazol-1-yl}piperidine-2,6-dione] | 49 | 27 | 38 | – | 78 % of control
COc1cc(-c2cn(C3CCC(=O)NC3=O)nn2)cs1 (centres unmarked) [compound 20, 3-[4-(5-methoxythiophen-3-yl)-1H-1,2,3-triazol-1-yl]piperidine-2,6-dione] | 35 | 55 | 53 | – | 104 % of control
O=C1CCC(n2cc(-c3cscc3OCc3cc4ccccc4s3)nn2)C(=O)N1 (centres unmarked) [compound 47, 3-{4-[4-(benzo[b]thiophen-2-ylmethoxy)thiophen-3-yl]-1H-1,2,3-triazol-1-yl}piperidine-2,6-dione] | 64 | 87 | 56 | – | 106 % of control
CCOc1cc(-c2cn(C3CCC(=O)NC3=O)nn2)cs1 (centres unmarked) [compound 24, 3-[4-(5-ethoxythiophen-3-yl)-1H-1,2,3-triazol-1-yl]piperidine-2,6-dione] | 63 | 69 | 72 | – | 91 % of control
Cl.O=C1CCC(n2cc(-c3cscc3OCc3ccc(CN4CCCCC4)cc3)nn2)C(=O)N1 (centres unmarked) [compound 42, 3-(4-{4-[4-(piperidin-1-ylmethyl)benzyloxy]thiophen-3-yl}-1H-1,2,3-triazol-1-yl)piperidine-2,6-dione hydrochloride] | 27 | 17 | 26 | – | 103 % of control
CCCCOc1cscc1-c1cn(C2CCC(=O)NC2=O)nn1 (centres unmarked) [compound 25, 3-[4-(4-butoxythiophen-3-yl)-1H-1,2,3-triazol-1-yl]piperidine-2,6-dione] | 69 | 68 | 73 | – | 118 % of control
O=C1CCC(n2nnc(-c3ccsc3)c2Cl)C(=O)N1 (centres unmarked) [compound 4, 3-[5-chloro-4-(thiophen-3-yl)-1H-1,2,3-triazol-1-yl]piperidine-2,6-dione] | 87 | 82 | 91 | – | 112 % of control
Cc1cc(-c2cn(C3CCC(=O)NC3=O)nn2)cs1 (centres unmarked) [compound 6, 3-[4-(5-methylthiophen-3-yl)-1H-1,2,3-triazol-1-yl]piperidine-2,6-dione] | 63 | 79 | 72 | – | 96 % of control
O=C1CCC(n2cc(-c3cscc3OCc3ccc(CN4CCOCC4)cc3)nn2)C(=O)N1 (centres unmarked) [compound 36, 3-(4-{4-[4-(morpholinomethyl)benzyloxy]thiophen-3-yl}-1H-1,2,3-triazol-1-yl)piperidine-2,6-dione] | 16 | 6 | 19 | – | 59 % of control
